Reference: patent US8921373B2, “Compounds having TRPV1 antagonistic activity and uses thereof” (Shionogi & Co., Ltd., priority 2010, dated 2014)

How the values were obtained:
human recombinant TRPV1 [1] = biological target: T1, human recombinant TRPV1 (Homo sapiens (Human), UniProt Q8NER1); experiment: TRPV1 pH-Based Assay (Protocol 2, Ca2+ response in TRPV1/CHO cells, Fura-2); format: cell-based
Experimental: (§1) For Protocol 2, a Chinese Hamster Ovary cell line (CHO) that has been engineered to constitutively express human recombinant TRPV1 was used (TRPV1/CHO cells). The TRPV1/CHO cell line was generated as described below.
TRPV1/CHO cells were seeded in the 96-well clear-bottom black-wall plate (Nunc) at densities of 1-2×10^4 cells/well and grown in 100 μL of culture medium (alpha-MEM supplemented with 10% FBS, 20 mM HEPES, 1 mg/mL geneticin and 1% antibiotic-antimycotic mixed stock solution) for 1-2 days before the experiment.
(2) The 96-well plate was incubated at 37° C. for 45 min.
(3) The loading buffer was removed from each well. […] The wells were then refilled with 80 μL of measuring buffer.
(4) After an incubation at 4° C. for 15 min, the 96-well plate was transferred to FDSS-3000 (Hamamatsu Photonics, Japan).
(5) The Fura-2 fluorescent intensity was monitored at a wavelength of 340 nm and at 380 nm, respectively, at a rate of 0.5 Hz for a total of 240 seconds. After 16 time points (32 sec) of baseline detection, 20 μL of agonist solution was added to each well. The final volume was 100 μL/well.
(6) Fluorescence intensity ratio refers to the fluorescence intensity at 340 nm over the fluorescence intensity at 380 nm at a particular time point. The baseline was set as the average of the fluorescent intensity ratios for the first 16 time points before the addition of agonist solution. The maximum response was the highest fluorescent intensity ratio during the 60 time points following addition of agonist solution.
(7) Maximal signal ratios from each well were calculated as output data using the FDSS-3000 analysis program. Data were analyzed using Excel (Microsoft) and XLfit (idbs) software.
Two different agonist solutions with different H2SO4 concentrations were used for the pH assay (FIG. 3A). For one half of a 96-well plate one agonist solution was used, for the other half the other agonist solution. The agonist solutions were obtained by diluting sulfuric acid (H2SO4, 1M) with measuring buffer. The concentrations for the two agonist solutions were determined as described above in Section 2 of Protocol 2.
The sulfuric acid concentrations between the two agonist solutions differed by 0.5 mM. […] After 1:4 dilution of the agonist solutions, the final sulfuric acid concentration was 3.2 mM and 3.3 mM, respectively. The resulting pH value for the pH assay was 5.0 to 5.1.
Test compounds were dissolved in DMSO to yield 1 mM stock solutions. […] The thereby-obtained solutions were further diluted in measuring buffer (1:100) as 10× stock serial dilutions with a DMSO concentration of 1%. 10 μL of a 10× stock was added into each well at step 3.3.(4) of Protocol 2.
Steps (1) and (2) of this Assay were the same as steps 2.2.(1) and 2.2.(2) of Protocol 2, respectively.
(3) The cells were washed twice with 150 μL of measuring buffer (mentioned in 2.2.(3) of Protocol 2, no probenecid). The wells were subsequently refilled with 70 μL of measuring buffer.
(4) Either 10 μl of measuring buffer or 10 μL of 10× stock serial dilution of test compound (described in 3.2. above) were applied to each well. Usually, only one test compound was tested per 96-well plate. The number of replicates per 96-well plate for a particular antagonist at a particular concentration was 7×2 since two different sulfuric acid concentrations were used per 96-well plate (N=7×2) (FIG. 3).
Step (5) was the same as 2.2.(4) above.
(6) Fura-2 fluorescent intensity was monitored as described in 2.2.(5) above. After 16 time points of baseline detection, 20 μL of agonist solution (measuring buffer titrated with H2SO4 to yield pH 5.0-5.1 when mixed 1:4 with the measuring buffer containing test compound) was added to each well (final volume 100 μL/well).
Steps (7) and (8) were as described in 2.2.(6) and 2.2.(7) above, respectively.
(1) The pH values of the buffer in the wells of A1→H1 and A7→H7 (longitudinally; FIG. 3) were measured one by one using a portable pH meter.

[2] = Measurement of body temperature increase (rectal body temperature); format: in vivo, rat; settings: Crl/SD rats, oral, 1 mg/mL at 10 mL/kg
Experimental: Test Animals: Selection of rats (Crl/SD rats, 7 weeks, male) for this study was based on rectal body temperature measured during the morning of the day of dosing. In addition, animals selected for this study were acclimated to both the rectal measurement procedure and to being handled and dosed to minimize spontaneous, stress-induced, increases in body temperature. The study was conducted in the animal care laboratories where the room temperature and humidity were kept. The rats were free to move and food and water during the study. Each rat was numbered with color line on the tail, housed in each cage and permitted the normal range of movement. Immediately before each body temperature was measured, they transferred to a single cage at each measurement. To reduce stress which affected the body temperature, the rats were covered with towels at the measurement. The thermistor probe was then carefully inserted into the rectum of each rat and left in place until the value on the digital display had stabilized.
Assays: On the day before dosing, rectal body temperatures were measured at 9:00, 10:00, 11:00, 12:30, 13:30, 14:30 and 15:30 to familiarize the animals with the measurement procedure prior to administration of the test or control treatments. The rats were also dosed by oral gavage without vehicle at 12:30 to acclimate and familiarized the animals with the handling and dosing procedure.
On the day of dosing, only rats whose rectal body temperatures were within the range of 37.0° C. to 37.7° C. were selected for this study. Rectal body temperatures were measured at 9:00, 10:00 and 11:00. Rats whose rectal body temperatures were over 37.9° C. at 10:00, and were outside the range of 37.0° C. to 37.7° C. at 11:00 were excluded from the study. The selected rats were divided to several groups based on their rectal body temperatures at 11:00. Rectal body temperatures of the selected rats were measured again at 12:30, and any rats whose rectal body temperature was 38.0° C. or greater were excluded from the study.
Following the group assignment, test compounds or vehicle was administrated to the rats. Each test compound was dissolved in 0.5% methylcellurose and the final concentration of the compound was adjusted to 1 mg/mL. Test compound was orally administrated in a volume 10 mL/kg once. 10 mL/kg of vehicle (0.5% methylcellurose) was administered to the vehicle group. The rectal body temperatures were measured 0.5, 1 and 2 hrs after the administration. The study was conducted in the animal care laboratories where the room temperature and humidity were kept.
Body temperature increase (ΔTb) was calculated from the difference from an average of the vehicle group at each time point.

human recombinant TRPV1 [3] = biological target: T1, human recombinant TRPV1; experiment: TRPV1 Capsaicin-Based Assay (Protocol 2, TRPV1/CHO cells, Fluo-4, FLIPR); format: cell-based
Experimental: as §1
One day prior to assay, TRPV1/CHO cells were seeded in 96-well clear-bottom black plates (20,000 cells/well) in growth media. On the day of the experiment, the cells were washed with 0.2 mL 1× Hank's Balanced Salt Solution (Life Technologies) containing 1.6 mM CaCl2 and 20 mM HEPES, pH 7.4 (“wash buffer”). Subsequently, the cells were loaded by incubation in 0.1 mL of wash buffer containing Fluo-4 at 3 μM final concentration. After 1 hour, the cells were washed twice with 0.2 mL wash buffer and resuspended in 0.1 mL wash buffer. The plates were then transferred to a Fluorescence Imaging Plate Reader (Molecular Devices). Fluorescence intensity was monitored for 15 seconds to establish a baseline. Subsequently, test compounds diluted in assay buffer (1× Hank's Balanced Salt Solution containing 1 mM CaCl2 and 20 mM HEPES, pH 7.4) containing 1% DMSO were added to the cell plate and fluorescence was monitored for 2 minutes. […] Human TRPV1 was then activated by the addition of 50 μL capsaicin (100 nM final concentration) and plates incubated for an additional 3 min. Data were collected over the entire time course and analyzed using Excel and the curve-fitting formula GraphPad Prism.

[4] = TRPV1/CHO cells, pH 5.0-5.1, read-out: IC50 value by the pH-Based Assay
[5] = TRPV1/CHO cells, capsaicin 100 nM final, read-out: IC50 value by the Capsaicin-Based Assay

T1 sequence (Q8NER1 whole entry): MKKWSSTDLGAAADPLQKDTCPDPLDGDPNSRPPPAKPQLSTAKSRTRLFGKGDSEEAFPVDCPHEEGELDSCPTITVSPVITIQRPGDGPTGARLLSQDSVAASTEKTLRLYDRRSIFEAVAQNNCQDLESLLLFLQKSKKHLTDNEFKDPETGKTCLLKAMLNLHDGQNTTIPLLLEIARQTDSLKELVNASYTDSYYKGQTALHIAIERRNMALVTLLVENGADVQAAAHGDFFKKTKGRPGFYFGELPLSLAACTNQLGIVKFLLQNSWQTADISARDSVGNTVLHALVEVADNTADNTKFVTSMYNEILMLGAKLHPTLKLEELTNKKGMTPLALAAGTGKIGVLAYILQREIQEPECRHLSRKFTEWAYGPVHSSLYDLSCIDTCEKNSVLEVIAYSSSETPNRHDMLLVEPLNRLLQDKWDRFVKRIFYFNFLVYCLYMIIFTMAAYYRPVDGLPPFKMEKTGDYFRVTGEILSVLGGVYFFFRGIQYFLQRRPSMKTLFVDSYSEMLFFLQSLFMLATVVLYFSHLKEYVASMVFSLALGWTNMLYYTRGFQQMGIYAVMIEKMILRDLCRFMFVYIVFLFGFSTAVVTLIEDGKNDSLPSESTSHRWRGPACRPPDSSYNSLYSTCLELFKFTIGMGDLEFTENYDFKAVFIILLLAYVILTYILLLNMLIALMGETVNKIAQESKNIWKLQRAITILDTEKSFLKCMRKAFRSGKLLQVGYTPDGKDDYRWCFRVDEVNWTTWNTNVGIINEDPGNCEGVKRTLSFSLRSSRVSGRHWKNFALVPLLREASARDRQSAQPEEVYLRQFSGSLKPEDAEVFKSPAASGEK

Structure (SMILES)	IC50 (human recombinant TRPV1 [1]; [4]) [nM]	Body temperature increase [2]	IC50 (human recombinant TRPV1 [3]; [5]) [nM]	other results
O=C(Nc1ccc(C(F)(F)F)c(Cl)c1)N1CC=C(c2ncc(C[C@H](O)CO)cc2Cl)CC1 [AAF, (S)-N-(3-Chloro-4-(trifluoromethyl)phenyl)-4-(3-chloro-5-(2,3-dihydroxypropyl)pyridin-2-yl)-5,6-dihydropyridine-1(2H)-carboxamide]	≤ 50	less than 0.5 °C		
Cc1cc(NC(=O)N2CC=C(c3ncc(C[C@@H](O)CO)cc3F)CC2)ccc1OC(F)(F)F [ACB, (R)-5-(2,3-dihydroxypropyl)-3-fluoro-N-(3-methyl-4-(trifluoromethoxy)phenyl)-5′,6-dihydro-[2,4′-bipyridine]-1′(2′H)-carboxamide]		less than 0.5 °C		
Cc1cc(NC(=O)N2CC=C(c3ncc(C[C@H](O)CO)cc3C)CC2)ccc1C(F)(F)F [ACL, (S)-4-(5-(2,3-dihydroxypropyl)-3-methylpyridin-2-yl)-N-(3-methyl-4-(trifluoromethyl)phenyl)-5,6-dihydropyridine-1(2H)-carboxamide]		less than 0.5 °C		
O=C(Nc1nc2cc(F)c(F)cc2s1)N1CCN(c2ncc(C[C@H](O)CO)cc2F)CC1 [AFB]				IC50 (human recombinant TRPV1 [1]): ≤ 50 nM; IC50 (human recombinant TRPV1 [3]): ≤ 50 nM
O=C(Nc1nc2ccc(F)cc2s1)N1CCC(F)(c2ncc(C[C@@H](O)CO)cc2Cl)CC1 [AEF, (R)-4-(3-chloro-5-(2,3-dihydroxypropyl)pyridin-2-yl)-4-fluoro-N-(6-fluorobenzo[d]thiazol-2-yl)piperidine-1-carboxamide]		less than 0.5 °C		
Cc1cc(NC(=O)N2CC=C(c3ncc(C[C@@H](O)CO)cc3C)CC2)ccc1C(F)(F)F [ACD, (R)-4-(5-(2,3-dihydroxypropyl)-3-methylpyridin-2-yl)-N-(3-methyl-4-(trifluoromethyl)phenyl)-5,6-dihydropyridine-1(2H)-carboxamide]		less than 0.5 °C		
Cc1cc(NC(=O)N2CCC(F)(c3ncc(C[C@H](O)CO)cc3Cl)CC2)ccc1OC(F)(F)F [ACT, (S)-4-(3-Chloro-5-(2,3-dihydroxypropyl)pyridin-2-yl)-4-fluoro-N-(3-methyl-4-(trifluoromethoxy)phenyl)piperidine-1-carboxamide]	≤ 50		≤ 50	
Cc1cc(NC(=O)N2CC=C(c3ncc(C[C@@H](O)CO)cc3Cl)CC2)ccc1OC(F)(F)F [AAS, (R)-4-(3-Chloro-5-(2,3-dihydroxypropyl)pyridin-2-yl)-N-(3-methyl-4-(trifluoromethoxy)phenyl)-5,6-dihydropyridine-1(2H)-carboxamide]	≤ 50		≤ 50	
Cc1cc(NC(=O)N2CC=C(c3ncc(C[C@H](O)CO)cc3C)CC2)ccc1OC(F)(F)F [ACK, (S)-4-(5-(2,3-dihydroxypropyl)-3-methylpyridin-2-yl)-N-(3-methyl-4-(trifluoromethoxy)phenyl)-5,6-dihydropyridine-1(2H)-carboxamide]		less than 0.5 °C		

More lines, main results first:

IC50 (human recombinant TRPV1 [1]; [4]) [nM]	Body temperature increase [2]	IC50 (human recombinant TRPV1 [3]; [5]) [nM]	Structure (SMILES)	other results
≤ 50	less than 0.5 °C		C[C@@H]1CN(c2ncc(C[C@@H](O)CO)cc2F)CCN1C(=O)Nc1nc2ccc(Cl)cc2s1 [ADK, (R)-N-(6-chlorobenzo[d]thiazol-2-yl)-4-{5-[(R)-2,3-dihydroxypropyl]-3-fluoropyridin-2-yl}-2-methylpiperazine-1-carboxamide]	
≤ 50		≤ 50	C[C@H]1CN(C(=O)Nc2nc3ccc(Cl)cc3s2)CCN1c1ncc(C[C@@H](O)CO)cc1F [AFR]	
≤ 50		≤ 50	Cc1ccc2nc(NC(=O)N3CCN(c4ncc(C[C@H](O)CO)cc4F)C[C@@H]3C)sc2c1 [AEP]	
≤ 50		≤ 50	C[C@@H]1CN(c2ncc(C[C@H](O)CO)cc2F)CCN1C(=O)Nc1nc2ccc(F)cc2s1 [AGZ]	
≤ 50		≤ 50	C[C@H]1CN(c2ncc(C[C@@H](O)CO)cc2Cl)CCN1C(=O)Nc1nc2ccc(F)cc2s1 [ADY]	
≤ 50		≤ 50	C[C@H]1CN(c2ncc(C[C@@H](O)CO)cc2Cl)CCN1C(=O)Nc1nc2ccc(Cl)cc2s1 [AEE]	
≤ 50		≤ 50	C[C@H]1CN(c2ncc(C[C@@H](O)CO)cc2Cl)CCN1C(=O)Nc1nc2ccccc2s1 [AEA]	
≤ 50		≤ 50	C[C@H]1CN(c2ncc(C[C@H](O)CO)cc2Cl)CCN1C(=O)Nc1nc2ccccc2s1 [AED]	
≤ 50		≤ 50	Cc1ccc2nc(NC(=O)N3CCN(c4ncc(C[C@H](O)CO)cc4Cl)C[C@@H]3C)sc2c1 [AEC]	
≤ 50		≤ 50	C[C@H]1CN(c2ncc(C[C@@H](O)CO)cc2F)CCN1C(=O)Nc1nc2ccc(Cl)cc2s1 [AEK]	
